Test results from the NIST ThermoML archive (doi:10.1021/je060271a).

Conditions: 283.15 K, Liquid, Vibrating tube method

CCCCCC(=O)OCC(COC(=O)CCCCC)(COC(=O)CCCCC)COC(=O)CCCCC [pentaerythritol tetrahexanoate]
Conditions | mass density [kg/m3]
4636.7 kPa | 1006.7
4649 kPa | 1006.8
4658.7 kPa | 1006.9
4668 kPa | 1006.9
4676.2 kPa | 1006.8
4685.2 kPa | 1006.8
4692.6 kPa | 1006.9
4700 kPa | 1006.9
4708.4 kPa | 1006.8
4714.4 kPa | 1006.8
4721.3 kPa | 1006.9
4726.5 kPa | 1006.8
4731.5 kPa | 1006.9
4736.6 kPa | 1006.9
4742.6 kPa | 1006.9
4748 kPa | 1006.9
4753 kPa | 1006.9
4759.1 kPa | 1006.9
4776 kPa | 1006.9
4786.1 kPa | 1007
4792.3 kPa | 1006.9
4802.7 kPa | 1006.8
4808.2 kPa | 1006.8
4814.3 kPa | 1006.9
4819.8 kPa | 1006.9
4825.4 kPa | 1007
4830.4 kPa | 1007
4835.6 kPa | 1007
4841.6 kPa | 1006.9
4847.2 kPa | 1007
4852.3 kPa | 1006.9
4858.9 kPa | 1007
4864.1 kPa | 1007
4869.3 kPa | 1007
4874.5 kPa | 1007
4881.1 kPa | 1007
4886.6 kPa | 1006.9
4892 kPa | 1006.9
4898.2 kPa | 1006.9
4903.6 kPa | 1007
4909.8 kPa | 1007
4915.2 kPa | 1007
4920.5 kPa | 1006.9
4926.4 kPa | 1007.1
4932 kPa | 1006.8
4938.5 kPa | 1006.9
4943.9 kPa | 1007
4949.3 kPa | 1007
4955.8 kPa | 1007
4961.4 kPa | 1007
4966.9 kPa | 1007
4972.8 kPa | 1007
4978 kPa | 1007
4984.9 kPa | 1007
4990.4 kPa | 1007.2
4996.2 kPa | 1007
5002.7 kPa | 1007.2
5008.1 kPa | 1007
5013.8 kPa | 1007.1
5020.4 kPa | 1007
5026.1 kPa | 1007
5031.5 kPa | 1007.1
5037.2 kPa | 1007
5044.1 kPa | 1007.2
5049.5 kPa | 1007.1
5055.5 kPa | 1007
5060.9 kPa | 1007.1
5067.8 kPa | 1007
5073.5 kPa | 1007.2
5079.2 kPa | 1007.1
5085.4 kPa | 1007.1
5091.5 kPa | 1007.1
5098.2 kPa | 1007
5103.9 kPa | 1007.1
5109.8 kPa | 1007
5115.5 kPa | 1007.1
5122.3 kPa | 1007
5128.3 kPa | 1007.1
5133.9 kPa | 1007.2
5138.7 kPa | 1007.1
5147 kPa | 1007.2
5152.5 kPa | 1007
5158.3 kPa | 1007.2
5164.7 kPa | 1007.2
5169.6 kPa | 1007.1
5176.9 kPa | 1007
5183.3 kPa | 1007.2
5189 kPa | 1007.1
5194.8 kPa | 1007.2
5201.6 kPa | 1007.1
5207.6 kPa | 1007
5212.7 kPa | 1007.2
5218.4 kPa | 1007.2
5227 kPa | 1007.3
5232.6 kPa | 1007.1
5237.2 kPa | 1007.1
5244.5 kPa | 1007.2
5250.5 kPa | 1007.1
5256.8 kPa | 1007.2
5263.7 kPa | 1007.2
5270.8 kPa | 1007.3
5276.8 kPa | 1007.2
5282.7 kPa | 1007.3
5290.2 kPa | 1007.4
5296 kPa | 1007.1
5302.1 kPa | 1007.3
5453.3 kPa | 1007.3
5459.7 kPa | 1007.3
5467.3 kPa | 1007.4
5473.7 kPa | 1007.4
5479.9 kPa | 1007.2
5486.3 kPa | 1007.3
5494.3 kPa | 1007.3
5501 kPa | 1007.3
5507.2 kPa | 1007.4
5514 kPa | 1007.4
5528.5 kPa | 1007.4
5534.4 kPa | 1007.4
5540.6 kPa | 1007.4
5548.4 kPa | 1007.4
5555 kPa | 1007.4
5561.9 kPa | 1007.3
5569.7 kPa | 1007.4
5575.9 kPa | 1007.4
5582.8 kPa | 1007.5
5589.4 kPa | 1007.4
5597.4 kPa | 1007.3
5604.1 kPa | 1007.5
5610.3 kPa | 1007.4
5618.3 kPa | 1007.4
5625 kPa | 1007.4
5631.6 kPa | 1007.4
5639.6 kPa | 1007.4
5646.1 kPa | 1007.5
5652.9 kPa | 1007.4
5661 kPa | 1007.5
5667.7 kPa | 1007.5
5674.8 kPa | 1007.3
5681.2 kPa | 1007.4
5687.9 kPa | 1007.4
5696.2 kPa | 1007.5
5703 kPa | 1007.4
5709.5 kPa | 1007.5
5716.6 kPa | 1007.5
5724.4 kPa | 1007.5
